Columns and labels:
wild-type TRPM8 = molecular target: T1, wild-type TRPM8 (Mus musculus, UniProt Q8R4D5); assay: open probability from noise analysis of macroscopic current and single-channel recordings; format: cell-based
T1 construct: expressed in transfected cells; host or cells: HEK293T
Protocol: (§1) Patch-clamp recordings were performed with a HEKA EPC10 amplifier controlled by PatchMaster software (HEKA). Whole-cell recordings were performed at ±80 mV. Patch pipettes were prepared from borosilicate glass and fire-polished to resistance of ~4 MΩ. For whole-cell recording, serial resistance was compensated by 60%. For single-channel recordings, patch pipettes were fire-polished to a higher resistance of 6-to-10 MΩ and then recorded in the inside-out configuration. To maximize the chance of obtaining a patch with only one channel, single-channel recordings were performed about 8 h after transfection. A solution with 130 mM NaCl, 10 mM glucose, 0.2 mM EDTA, and 3 mM HEPES (pH 7.2) was used in both bath and pipette for either whole-cell or single-channel recordings. Membrane potential was clamped at +80 mV for single-channel recordings. Current was sampled at 10 kHz and filtered at 2.9 kHz. All recordings were performed at room temperature (22 °C) with the maximum variation of 1 °C.
From single-channel recordings, the open probability (Po) was calculated after events detection with a hidden Markov approach in the software QuB[49] (http://www.qub.buffalo.edu/). A dead time of 0.32 ms was imposed. As a complementary approach, Po was also estimated from noise analysis[52] of whole-cell recordings. Briefly, the mean current amplitude (I), the squared deviations in current amplitude from the mean value (σ^2), and the single-channel current (i) were measured experimentally from a membrane patch of ion channels. Then the number of ion channels clamped in that patch (N) was determined as3 N=I^2/i⋅I−σ^2.
The maximum current when each of ion channel is at the open state with a Po of 1 is equal to i × N. Then the open probability was calculated as the ratio between the measured macroscopic current and the maximum current calculated by noise analysis. To estimate channel conductance, current amplitude was estimated from all-point histogram of single-channel recordings.

[1] = molecular target: T2, TRPM8 point mutants at sites 840, 910, 916, 972 (Mus musculus, UniProt Q8R4D5, T840D); assay: Φ analysis based on single-channel recordings; format: cell-based; details: TRPM8 840D, mean of single-channel recordings (500um, 1mM)
T2 construct: expressed in transfected cells; host or cells: HEK293T
T2 sequence (Q8R4D5 whole entry T840D): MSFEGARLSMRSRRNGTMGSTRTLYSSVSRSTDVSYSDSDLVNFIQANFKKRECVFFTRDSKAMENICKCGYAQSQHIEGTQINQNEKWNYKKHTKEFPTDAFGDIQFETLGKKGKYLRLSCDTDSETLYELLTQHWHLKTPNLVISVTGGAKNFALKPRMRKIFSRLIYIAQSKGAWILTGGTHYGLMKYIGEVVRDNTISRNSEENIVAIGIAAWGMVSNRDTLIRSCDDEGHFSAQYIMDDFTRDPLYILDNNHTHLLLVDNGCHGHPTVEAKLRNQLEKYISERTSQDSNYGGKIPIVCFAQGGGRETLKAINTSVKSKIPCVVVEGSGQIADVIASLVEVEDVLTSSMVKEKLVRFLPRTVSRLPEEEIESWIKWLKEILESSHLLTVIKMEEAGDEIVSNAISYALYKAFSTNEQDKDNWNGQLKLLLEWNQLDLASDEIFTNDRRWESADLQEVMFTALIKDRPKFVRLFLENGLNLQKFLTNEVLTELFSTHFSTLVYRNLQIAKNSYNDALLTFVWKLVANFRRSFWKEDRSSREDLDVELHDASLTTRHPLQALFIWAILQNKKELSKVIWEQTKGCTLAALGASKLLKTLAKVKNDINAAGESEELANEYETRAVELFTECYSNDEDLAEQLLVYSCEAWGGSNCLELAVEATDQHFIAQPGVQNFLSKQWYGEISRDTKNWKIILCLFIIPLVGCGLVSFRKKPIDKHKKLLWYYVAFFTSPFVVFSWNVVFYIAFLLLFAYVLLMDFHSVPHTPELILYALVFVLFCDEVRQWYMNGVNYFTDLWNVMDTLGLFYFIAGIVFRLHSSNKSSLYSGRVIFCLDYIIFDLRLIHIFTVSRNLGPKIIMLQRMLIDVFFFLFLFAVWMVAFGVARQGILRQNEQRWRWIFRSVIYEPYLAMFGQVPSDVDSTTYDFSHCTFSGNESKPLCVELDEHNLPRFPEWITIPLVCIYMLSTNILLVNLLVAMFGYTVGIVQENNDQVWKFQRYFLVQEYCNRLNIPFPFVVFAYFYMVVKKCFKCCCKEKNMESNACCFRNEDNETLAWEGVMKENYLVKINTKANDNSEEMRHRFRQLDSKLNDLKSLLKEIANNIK
Protocol: as §1
(§2) We followed the principle of Φ-analysis described in published literatures in detail[17],[36],[48]. […] At such a high concentration, only the patches showing the activities of one channel was used for analysis. Single-channel data were processed by the QuB software[49] version 1.4 (ref. [50]). Opening and closing events were detected during idealization with the half amplitude method. Using the simple close ↔ open model (Fig. 6a), the forward and backward rates were determined with a deadtime of 0.3-to-0.4 ms. The equilibrium constant was calculated as the ratio of forward and backward rates. Opening rates and equilibrium constants for each mutant at the same residue site were plotted in log scale (Brønsted plot) before fitting with a linear function to determine the Φ value.

[2] = molecular target: T3, TRPM8 point mutants at sites 840, 910, 916, 972 (Mus musculus, UniProt Q8R4D5, P916F); assay: Φ analysis based on single-channel recordings; format: cell-based; details: TRPM8 916F, mean of single-channel recordings
T3 construct: expressed in transfected cells; host or cells: HEK293T
T3 sequence (Q8R4D5 whole entry P916F): as the sequence (Q8R4D5 whole entry T840D) above, with D840T, P916F counted along it
Protocol: as §1, §2

[3] = molecular target: T4, TRPM8 point mutants at sites 840, 910, 916, 972 (Mus musculus, UniProt Q8R4D5, V972I); assay: Φ analysis based on single-channel recordings; format: cell-based; details: TRPM8 972I, mean of single-channel recordings
T4 construct: expressed in transfected cells; host or cells: HEK293T
T4 sequence (Q8R4D5 whole entry V972I): as the sequence (Q8R4D5 whole entry T840D) above, with D840T, V972I counted along it
Protocol: as §1, §2

[4] = molecular target: T5, TRPM8 point mutants at sites 840, 910, 916, 972 (Mus musculus, UniProt Q8R4D5, A910G); assay: Φ analysis based on single-channel recordings; format: cell-based; details: TRPM8 910G, mean of single-channel recordings (200u, 500u, 1mM)
T5 construct: expressed in transfected cells; host or cells: HEK293T
T5 sequence (Q8R4D5 whole entry A910G): as the sequence (Q8R4D5 whole entry T840D) above, with D840T, A910G counted along it
Protocol: as §1, §2

[5] = molecular target: T6, TRPM8 point mutants at sites 840, 910, 916, 972 (Mus musculus, UniProt Q8R4D5, A910V); assay: Φ analysis based on single-channel recordings; format: cell-based; details: TRPM8 910V, mean of single-channel recordings (1mM, 500um)
T6 construct: expressed in transfected cells; host or cells: HEK293T
T6 sequence (Q8R4D5 whole entry A910V): as the sequence (Q8R4D5 whole entry T840D) above, with D840T, A910V counted along it
Protocol: as §1, §2

[6] = molecular target: T7, TRPM8 point mutants at sites 840, 910, 916, 972 (Mus musculus, UniProt Q8R4D5, T840N); assay: Φ analysis based on single-channel recordings; format: cell-based; details: TRPM8 840N, mean of single-channel recordings (1mM, 5mM)
T7 construct: expressed in transfected cells; host or cells: HEK293T
T7 sequence (Q8R4D5 whole entry T840N): as the sequence (Q8R4D5 whole entry T840D) above, with D840N counted along it
Protocol: as §1, §2

[7] = system: TRPM8 point mutants at sites 840, 910, 916, 972; assay: Φ analysis based on single-channel recordings; format: cell-based, mouse; details: for Φ value: 5 mM menthol, single-channel, +80 mV
Protocol: as §1, §2

[8] = molecular target: T8, TRPM8 point mutants at sites 840, 910, 916, 972 (Mus musculus, UniProt Q8R4D5, A910I); assay: Φ analysis based on single-channel recordings; format: cell-based; details: TRPM8 910I, mean of single-channel recordings (1mM)
T8 construct: expressed in transfected cells; host or cells: HEK293T
T8 sequence (Q8R4D5 whole entry A910I): as the sequence (Q8R4D5 whole entry T840D) above, with D840T, A910I counted along it
Protocol: as §1, §2

[9] = molecular target: T9, TRPM8 point mutants at sites 840, 910, 916, 972 (Mus musculus, UniProt Q8R4D5); assay: Φ analysis based on single-channel recordings; format: cell-based
T9 construct: expressed in transfected cells; host or cells: HEK293T
T9 sequence (Q8R4D5 whole entry, change not shown): as the sequence (Q8R4D5 whole entry T840D) above, with D840T counted along it
Protocol: as §1, §2

[10] = TRPM8 840A, mean of single-channel recordings (500um)
[11] = TRPM8 910T, mean of single-channel recordings (1mM, 5mM)
[12] = TRPM8 972L, mean of single-channel recordings
[13] = TRPM8 840T (recordings 1S-AF/2S-AF, 500um, 1mM)
[14] = TRPM8 910A (recordings 1S-AF/2S-AF, 500um, 1mM)
[15] = TRPM8 916P (recordings 1S-AF/2S-AF, 500um, 1mM)
[16] = TRPM8 972V (recordings 1S-AF/2S-AF, 500um, 1mM)

T1 sequence (Q8R4D5 whole entry): as the sequence (Q8R4D5 whole entry T840D) above, with D840T counted along it

For CC(C)[C@@H]1CC[C@@H](C)C[C@H]1O [menthol, (−)-menthol], the agonist nature (wild-type TRPM8; noise analysis of macroscopic current, confirmed in single-channel recordings) was “partial agonist”, the “maximum open probability (Po max)” value (wild-type TRPM8; wild-type TRPM8, near saturating concentration (menthol 500 µM)) was 0.81 ± 0.03 and the logKeqave [1] was 0.4314. The “ratesave (mean log forward rates)” value [1] was 3.1375, the logKeqave [2] was 0.4532 and the logratesave [2] was 3.166. For the same compound, the logKeqave [3] was -0.5254, the logKeqave [4] was -0.02911 and the “ratesave (mean log forward rates)” value [4] was 2.893. For the same compound, the logKeqave [5] was 0.7613, the “ratesave (mean log forward rates)” value [5] was 3.348 and the logKeqave [6] was 0.1255. For the same compound, the “ratesave (mean log forward rates)” value [6] was 3.014, the logKeqave [7, 10] was -0.9923 and the “ratesave (mean log forward rates)” value [7, 10] was 2.126. For the same compound, the logKeqave [7, 11] was 0.1885, the “ratesave (mean log forward rates)” value [7, 11] was 3.0067 and the logKeqave [7, 12] was 0.4054. The logratesave [7, 12] was 3.126, the “phi from single-channel recording” value ([7]; site 840) was 0.7339 and the Φ value ([7]; site 840) was 0.73. For the same compound, the “phi from single-channel recording” value ([7]; site 910) was 0.6331, the Φ value ([7]; site 910) was 0.63 and the “phi from single-channel recording” value ([7]; site 916) was 0.4253. For the same compound, the Φ value ([7]; site 916) was 0.42, the “phi from single-channel recording” value ([7]; site 972) was 0.711 and the Φ value ([7]; site 972) was 0.71. The logKeqave [8] was -1.154, the “ratesave (mean log forward rates)” value [8] was 2.135 and the logKeqave [9, 13] was -0.1349. The “ratesave (mean log forward rates)” value [9, 13] was 2.916, the logKeqave [9, 14] was -0.1349 and the “ratesave (mean log forward rates)” value [9, 14] was 2.916. The logKeqave [9, 15] was -0.1349, the logratesave [9, 15] was 2.916 and the logKeqave [9, 16] was -0.1349. It also gave a logratesave [9, 16] of 2.916.

From paper PMC7391767, “Molecular mechanisms underlying menthol binding and activation of TRPM8 ion channel” (Nature Communications, 2020)
